# Measurements as given in ChEMBL document CHEMBL1795225, “Flavonoids as inhibitors of human CD38” (Bioorg Med Chem Lett, 2011).
# Target: T1, ADP-ribosyl cyclase/cyclic ADP-ribose hydrolase 1 (Homo sapiens, UniProt P28907)
# T1 sequence (P28907 whole entry): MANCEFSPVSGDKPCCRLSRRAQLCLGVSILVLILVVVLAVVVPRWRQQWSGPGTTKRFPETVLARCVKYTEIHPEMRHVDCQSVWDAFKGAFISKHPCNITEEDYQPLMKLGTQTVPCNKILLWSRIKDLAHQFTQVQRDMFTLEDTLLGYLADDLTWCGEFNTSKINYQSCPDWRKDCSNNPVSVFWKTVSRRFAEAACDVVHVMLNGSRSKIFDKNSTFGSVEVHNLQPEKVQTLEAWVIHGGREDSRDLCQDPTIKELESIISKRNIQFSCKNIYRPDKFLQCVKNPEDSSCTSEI
# Assay: Inhibition of human CD38 using 20 uM 1, N6-etheno NAD+ as substrate by continuous fluorimetric method
row,Structure (SMILES),IC50 [µM]
1,O=c1c(O)c(-c2ccc(O)c(O)c2)oc2cc(O)c(O)c(O)c12 [QUERCETAGETIN],48.6
2,O=c1c(O)c(-c2ccc(O)c(O)c2)oc2cc(O)cc(O)c12 [QUERCETIN],37.9
3,Oc1ccc(-c2[o+]c3cc(O)c(O)c(O)c3cc2O)cc1O,14.2
4,COc1ccc(-c2ccc3c(O)cc(O)cc3[o+]2)cc1O [DIOSMETINIDIN],32.1
5,COc1cc(-c2[o+]c3cc(O)cc(O)c3cc2O)cc(O)c1O [PETUNIDIN],39.2
6,Oc1ccc(/C=C/c2cc(O)cc(O)c2)cc1 [RESVERATROL],> 100
7,OC[C@H]1O[C@@H](Oc2cc3c(O)cc(O)cc3[o+]c2-c2ccc(O)c(O)c2)[C@H](O)[C@@H](O)[C@@H]1O [KUROMANIN],6.3
8,Oc1cc(O)c2cc(O)c(-c3cc(O)c(O)c(O)c3)[o+]c2c1 [DELPHINIDIN],14.6
9,Oc1cc(O)c2cc(O)c(-c3ccc(O)c(O)c3)[o+]c2c1 [CYANIDIN],21.8
10,O=c1c(O)c(-c2cc(O)c(O)c(O)c2)oc2cc(O)cc(O)c12 [MYRICETIN],24.8
11,Oc1ccc(-c2[o+]c3cc(O)cc(O)c3cc2O)cc1 [PELARGONIDIN],16.3
12,O=c1c(O)c(-c2cc(O)c(O)c(O)c2)oc2cc(O)ccc12 [ROBINETIN],37.9
13,Oc1cc(O)cc(/C=C/c2ccc(O)c(O)c2)c1 [PICEATANNOL],> 100
14,Oc1cc(O)c2ccc(-c3ccc(O)c(O)c3)[o+]c2c1 [LUTEOLINIDIN],6
15,O=c1cc(-c2ccc(O)c(O)c2)oc2cc(O)cc(O)c12 [LUTEOLIN],8.2
16,Oc1cc(O)c2c(c1)OC(c1ccc(O)c(O)c1)C(O)C2 (racemic) [CATECHIN],> 100
17,Oc1ccc2cc(O)c(-c3ccc(O)c(O)c3)[o+]c2c1 [FISETINIDIN],70.3
18,COc1cc(-c2[o+]c3cc(O)cc(O)c3cc2O)cc(OC)c1O [MALVIDIN],17
